MIC data for 20 compounds are collected here from patent US20090156577A1, “7-AMINO ALKYLIDENYL-HETEROCYCLIC QUINOLONES AND NAPHTHYRIDONES” (priority 2004, published 2009).

The structures appear in SMILES notation. In brackets after ≈: the same amount, converted by molar mass. Where two headings read alike, the source gives them in different places.

The test deals with pathogenic bacteria. Briefly: MIC by microdilution broth method (NCCLS M7-A4), in vitro antibacterial activity. In kind it is cell-based. Put shortly:
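Broth microdilution per NCCLS M7-A4: two-fold serial dilutions in cation-adjusted Mueller-Hinton broth, inoculum about 5×10^4 CFU/well. Trays incubated 16–20 h at 35 °C. MIC read by comparing growth against no-compound growth controls.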
In general terms: Dilution methods test growth across graded concentrations, often in twofold steps.

[1] abbreviates: Staphylococcus aureus, Organism A: Staphylococcus aureus OC4172, read-out: MIC.
[2] abbreviates: Streptococcus pneumoniae, ATCC49619, Organism E: Streptococcus pneumoniae ATCC 49619, read-out: MIC.
Setting [3] is: Streptococcus pneumoniae, Organism B: fluoroquinolone-resistant clinical isolate of Streptococcus pneumoniae (QRDR amino acid substitutions).
Setting [4] is: Streptococcus pneumoniae, Organism C: fluoroquinolone-resistant clinical isolate of Streptococcus pneumoniae (QRDR amino acid substitutions).
Setting [5] is: Streptococcus pneumoniae, Organism D: fluoroquinolone-resistant clinical isolate of Streptococcus pneumoniae (QRDR amino acid substitutions).

For the compound `Cc1c(F)c(N2CC(=C(Cl)CO)C2)cc2c1c(=O)c(C(=O)O)cn2C1CC1` [Compound 364, 7-[3-(1-Chloro-2-hydroxy-ethylidene)-azetidin-1-yl]-1-cyclopropyl-6-fluoro-5-methyl-4-oxo-1,4-dihydro-quinoline-3-carboxylic Acid], the MIC by setting is: under setting [1], 0.06 µg/mL (≈ 0.153 µM); under setting [2], 2 µg/mL (≈ 5.09 µM); under setting [3], > 16 µg/mL; under setting [4], > 16 µg/mL; under setting [5], > 16 µg/mL.
As to `C[C@H]1COc2c(N3CC(=CCN)C3)c(F)cc3c(=O)c(C(=O)O)cn1c23` [Compound 365, (S)-9-[3-(2-Amino-ethylidene)-azetidin-1-yl]-8-fluoro-3-methyl-6-oxo-2,3-dihydro-6H-1-oxa-3a-aza-phenalene-5-carboxylic Acid], the MIC by setting is: under setting [1], 0.12 µg/mL (≈ 0.334 µM); under setting [2], 2 µg/mL (≈ 5.57 µM); under setting [4], > 16 µg/mL; under setting [5], > 16 µg/mL.
Consider `CC(CN)=C1CN(c2c(F)cc3c(=O)c(C(=O)O)cn4c3c2OC[C@@H]4C)C1` [Compound 366, (S)-9-[3-(2-Amino-1-methyl-ethylidene)-azetidin-1-yl]-8-fluoro-3-methyl-6-oxo-2,3-dihydro-6H-1-oxa-3a-aza-phenalene-5-carboxylic Acid], for which the MIC was 4 µg/mL (≈ 10.7 µM) under setting [1], 4 µg/mL (≈ 10.7 µM) under setting [2], > 16 µg/mL under setting [4] and 8 µg/mL (≈ 21.4 µM) under setting [5].
As for `CC(CN)=C1CN(c2cc3c(c(C)c2F)c(=O)c(C(=O)O)cn3C2CC2)C1` [Compound 367, 7-[3-(2-Amino-1-methyl-ethylidene)-azetidin-1-yl]-1-cyclopropyl-6-fluoro-5-methyl-4-oxo-1,4-dihydro-quinoline-3-carboxylic Acid], the MIC is, setting by setting: under setting [1], ≤ 0.015 µg/mL; under setting [2], 0.12 µg/mL (≈ 0.323 µM); under setting [3], 0.25 µg/mL (≈ 0.673 µM); under setting [4], 1 µg/mL (≈ 2.69 µM); under setting [5], 1 µg/mL (≈ 2.69 µM).
As for `COc1c(N2CC(=C(C)CN)C2)c(F)cc2c(=O)c(C(=O)O)cn([C@@H]3C[C@@H]3F)c12` [Compound 368, 7-[3-(2-Amino-1-methyl-ethylidene)-azetidin-1-yl]-6-fluoro-(1R,2S)-1-(2-fluoro-cyclopropyl)-8-methoxy-4-oxo-1,4-dihydro-quinoline-3-carboxylic Acid], the minimum inhibitory concentration (MIC) is 0.25 µg/mL (≈ 0.617 µM) under setting [1]; 1 µg/mL (≈ 2.47 µM) under setting [2]; 8 µg/mL (≈ 19.7 µM) under setting [3]; > 16 µg/mL under setting [4]; 8 µg/mL (≈ 19.7 µM) under setting [5].
For `NCC(Cl)=C1CCN(c2c(F)c(N)c3c(=O)c(C(=O)O)cn(C4CC4)c3c2F)CC1` [Compound 369, 5-Amino-7-[4-(2-amino-1-chloro-ethylidene)-piperidin-1-yl]-1-cyclopropyl-6,8-difluoro-4-oxo-1,4-dihydro-quinoline-3-carboxylic Acid], the MIC stood at 0.03 µg/mL (≈ 0.0684 µM) under setting [1]; 0.03 µg/mL (≈ 0.0684 µM) under setting [2]; 0.06 µg/mL (≈ 0.137 µM) under setting [3]; 0.5 µg/mL (≈ 1.14 µM) under setting [4]; 0.12 µg/mL (≈ 0.273 µM) under setting [5].
As to `NCC(Cl)=C1CCN(c2c(F)cc3c(=O)c(C(=O)O)cn(C4CC4)c3c2OCF)CC1` [Compound 370, 7-[4-(2-Amino-1-chloro-ethylidene)-piperidin-1-yl]-1-cyclopropyl-6-fluoro-8-fluoromethoxy-4-oxo-1,4-dihydro-quinoline-3-carboxylic Acid], the MIC runs as follows: under setting [1], 2 µg/mL (≈ 4.41 µM); under setting [2], 8 µg/mL (≈ 17.6 µM); under setting [3], > 16 µg/mL; under setting [4], > 16 µg/mL; under setting [5], 16 µg/mL (≈ 35.3 µM).
For `Cc1c(N2CCC(=C(Cl)CN)CC2)c(F)cc2c(=O)c(C(=O)O)cn(C3CC3)c12` [Compound 371, 7-[4-(2-Amino-1-chloro-ethylidene)-piperidin-1-yl]-1-cyclopropyl-6-fluoro-8-methyl-4-oxo-1,4-dihydro-quinoline-3-carboxylic Acid], the MIC was ≤ 0.015 µg/mL under setting [1]; 0.03 µg/mL (≈ 0.0714 µM) under setting [2]; 0.06 µg/mL (≈ 0.143 µM) under setting [3]; 0.12 µg/mL (≈ 0.286 µM) under setting [4]; 0.12 µg/mL (≈ 0.286 µM) under setting [5].
For the compound `C[C@H]1COc2c(N3CCC/C(=C(/Cl)CN)CC3)c(F)cc3c(=O)c(C(=O)O)cn1c23` [Compound 372, (3S)-9-[(Z)-4-(2-Amino-1-chloro-ethylidene)-azepan-1-yl]-8-fluoro-3-methyl-6-oxo-2,3-dihydro-6H-1-oxa-3a-aza-phenalene-5-carboxylic Acid], the MIC is 0.5 µg/mL (≈ 1.15 µM) under setting [1], 2 µg/mL (≈ 4.59 µM) under setting [2], 16 µg/mL (≈ 36.7 µM) under setting [4] and 8 µg/mL (≈ 18.4 µM) under setting [5].
`C[C@H]1COc2c(N3CCC/C(=C(\Cl)CN)CC3)c(F)cc3c(=O)c(C(=O)O)cn1c23` [Compound 373, (3S)-9-[(E)-4-(2-Amino-1-chloro-ethylidene)-azepan-1-yl]-8-fluoro-3-methyl-6-oxo-2,3-dihydro-6H-1-oxa-3a-aza-phenalene-5-carboxylic Acid]: the MIC came out at 0.06 µg/mL (≈ 0.138 µM) under setting [1]; 0.12 µg/mL (≈ 0.275 µM) under setting [2]; 0.5 µg/mL (≈ 1.15 µM) under setting [3]; 2 µg/mL (≈ 4.59 µM) under setting [4]; 1 µg/mL (≈ 2.29 µM) under setting [5].
The like results for `NC/C(F)=C1\CCCN(c2nc3c(cc2F)c(=O)c(C(=O)O)cn3C2CC2)C1` [Compound 374, (Z)-7-[3-(2-Amino-1-fluoro-ethylidene)-piperidin-1-yl]-1-cyclopropyl-6-fluoro-4-oxo-1,4-dihydro-[1,8]naphthyridine-3-carboxylic acid] were, in that order, 0.06 µg/mL (≈ 0.154 µM), 0.5 µg/mL (≈ 1.28 µM), 2 µg/mL (≈ 5.12 µM), 16 µg/mL (≈ 41 µM) and 4 µg/mL (≈ 10.2 µM).
Turning to `NC/C=C1/CCCN(c2nc3c(cc2F)c(=O)c(C(=O)O)cn3C2CC2)C1` [Compound 375, (Z)-7-[3-(2-Amino-ethylidene)-piperidin-1-yl]-1-cyclopropyl-6-fluoro-4-oxo-1,4-dihydro-[1,8]naphthyridine-3-carboxylic acid], the minimal inhibitory concentration (MIC) runs as follows: under setting [1], 0.12 µg/mL (≈ 0.322 µM); under setting [2], 8 µg/mL (≈ 21.5 µM); under setting [3], > 16 µg/mL; under setting [4], > 16 µg/mL; under setting [5], > 16 µg/mL.
Consider `NC/C=C1\CCCN(c2nc3c(cc2F)c(=O)c(C(=O)O)cn3C2CC2)C1` [Compound 376, (E)-7-[3-(2-Amino-ethylidene)-piperidin-1-yl]-1-cyclopropyl-6-fluoro-4-oxo-1,4-dihydro-[1,8]naphthyridine-3-carboxylic acid], for which the MIC reads like this: under setting [1], 0.25 µg/mL (≈ 0.671 µM); under setting [2], 1 µg/mL (≈ 2.69 µM); under setting [4], > 16 µg/mL; under setting [5], > 16 µg/mL.
Take `C/C(CN)=C1/CCCN(c2nc3c(cc2F)c(=O)c(C(=O)O)cn3C2CC2)C1` [Compound 377, (E)-7-[3-(2-Amino-1-methyl-ethylidene)-piperidin-1-yl]-1-cyclopropyl-6-fluoro-4-oxo-1,4-dihydro-[1,8]naphthyridine-3-carboxylic acid]: the MIC runs as follows: under setting [1], 0.5 µg/mL (≈ 1.29 µM); under setting [2], 4 µg/mL (≈ 10.4 µM); under setting [3], 16 µg/mL (≈ 41.4 µM); under setting [4], 8 µg/mL (≈ 20.7 µM); under setting [5], > 16 µg/mL.
Regarding `NC/C(Cl)=C1\CCCN(c2nc3c(cc2F)c(=O)c(C(=O)O)cn3C2CC2)CC1` [Compound 378, (Z)-7-[4-(2-Amino-1-chloro-ethylidene)-azepan-1-yl]-1-cyclopropyl-6-fluoro-4-oxo-1,4-dihydro-[1,8]naphthyridine-3-carboxylic acid], the MIC was determined as 0.25 µg/mL (≈ 0.594 µM) under setting [1], 1 µg/mL (≈ 2.38 µM) under setting [2], 4 µg/mL (≈ 9.5 µM) under setting [4] and 16 µg/mL (≈ 38 µM) under setting [5].
Consider `NC/C(Cl)=C1/CCCN(c2nc3c(cc2F)c(=O)c(C(=O)O)cn3C2CC2)CC1` [Compound 379, (E)-7-[4-(2-Amino-1-chloro-ethylidene)-azepan-1-yl]-1-cyclopropyl-6-fluoro-4-oxo-1,4-dihydro-[1,8]naphthyridine-3-carboxylic acid], for which the MIC stood at 0.25 µg/mL (≈ 0.594 µM) under setting [1]; 2 µg/mL (≈ 4.75 µM) under setting [2]; 1 µg/mL (≈ 2.38 µM) under setting [3]; 8 µg/mL (≈ 19 µM) under setting [4]; 16 µg/mL (≈ 38 µM) under setting [5].
For `C/C(CN)=C1\CCCN(c2nc3c(cc2F)c(=O)c(C(=O)O)cn3-c2ccc(F)cc2F)C1` [Compound 380, (Z)-7-[3-(2-Amino-1-methyl-ethylidene)-piperidin-1-yl]-1-(2,4-difluoro-phenyl)-6-fluoro-4-oxo-1,4-dihydro-[1,8]naphthyridine-3-carboxylic acid], in that order: 0.12 µg/mL (≈ 0.262 µM), 0.5 µg/mL (≈ 1.09 µM), 8 µg/mL (≈ 17.5 µM), 8 µg/mL (≈ 17.5 µM) and 4 µg/mL (≈ 8.73 µM).
The like results for `C/C(CN)=C1/CCCN(c2nc3c(cc2F)c(=O)c(C(=O)O)cn3-c2ccc(F)cc2F)C1` [Compound 381, (E)-7-[3-(2-Amino-1-methyl-ethylidene)-piperidin-1-yl]-1-(2,4-difluoro-phenyl)-6-fluoro-4-oxo-1,4-dihydro-[1,8]naphthyridine-3-carboxylic acid] were, in that order, 0.5 µg/mL (≈ 1.09 µM), 4 µg/mL (≈ 8.73 µM), 4 µg/mL (≈ 8.73 µM), > 16 µg/mL and > 16 µg/mL.
The like results for `NC/C(F)=C1\CCCN(c2cc3c(cc2F)c(=O)c(C(=O)O)cn3C2CC2)C1` [Compound 382, (Z)-7-[3-(2-Amino-1-fluoro-ethylidene)-piperidin-1-yl]-1-cyclopropyl-6-fluoro-4-oxo-1,4-dihydro-quinoline-3-carboxylic acid] were, in that order, 0.5 µg/mL (≈ 1.28 µM), 2 µg/mL (≈ 5.14 µM), 8 µg/mL (≈ 20.5 µM), > 16 µg/mL and 16 µg/mL (≈ 41.1 µM).
As to `NC/C=C1/CCCN(c2cc3c(cc2F)c(=O)c(C(=O)O)cn3C2CC2)C1` [Compound 383, (Z)-7-[3-(2-Amino-ethylidene)-piperidin-1-yl]-1-cyclopropyl-6-fluoro-4-oxo-1,4-dihydro-quinoline-3-carboxylic acid], the minimum inhibitory concentration (MIC) reads like this: under setting [1], 0.12 µg/mL (≈ 0.323 µM); under setting [2], 1 µg/mL (≈ 2.69 µM); under setting [3], 8 µg/mL (≈ 21.5 µM); under setting [4], > 16 µg/mL; under setting [5], > 16 µg/mL.

The MIC is the lowest concentration that inhibits growth of the organism.
